Laboratory results from US20070032471A1, “Active substance combination comprising a 2,5-dihydroxybenzenesulfonic compound and a potassium ion channel modulator” (LABORATORIOS DEL DR. ESTEVE S.A., priority 2003, published 2007).

Key:
diabetic rats = assay: Erectile response to cavernosal nerve electrical stimulation in anaesthetized diabetic rats; assay type: in vivo, rat; conditions: administered alone, intravenous administration
Protocol: The in-vivo activity of the active substance combination is tested as described in the reference of Saénz Tejada et al. in International Journal of Impotence Research 2003, 15, 90-93 under “Methods—Erectile responses to cavernosal nerve stimulation in anaesthetized rats”, which is hereby incorporated by reference and forms part of the disclosure. The erectile response to cavemosal nerve electrical stimulation in anaesthetized diabetic rats was determined as described above.

[1] = system: human penile resistance arteries; assay: Effect of calcium dobesilate on relaxation induced by K(ATP)-channel activation (pinacidil) in human penile arteries; conditions: calcium dobesilate 10 μM for 30 min; norepinephrine-contracted arteries; pinacidil 1 nM to 1 mM
Protocol: (§1) Penile small arteries, […] arteries (lumen diameter 150-400 μm), which are the terminal branches of deep penile arteries, are dissected by carefully removing the adhering trabecular tissue, and arterial ring segments (2 mm long) and are subsequently mounted on two 40 μm wires on microvascular Halpern-Mulvany myographs (J. P. Trading, Aarhus, Denmark) for isometric tension recordings. The vessels are allowed to equilibrate for 30 min in physiological salt solution (PSS) of the following composition (mmol/l): NaCl 119, KCl 4.6, CaCl2 1.5, MgCl2 1.2, NaHCO3 24.9, glucose 11, KH2PO4 1.2, EDTA 0.027 at 37° C. continuously bubbled with 95% 02/5% CO2 mixture to maintain a pH of 7.4. Passive tension and internal circumference of vascular segments when relaxed in situ under a transmural pressure of 100 mmHg (L100), are determined. […] The preparations are then exposed to 125 mM K^+ (KPSS, equimolar substitution of […] in PSS) and the contractile response is measured. […] At this time, responses to pinacidil are again evaluated in NE-contracted arteries. […] Relaxation responses are expressed as percentage of total relaxation (loss in tone) induced by the addition of 0.1 mmol/l papaverine HCl to the chambers at the end of the experiment. All data are expressed as mean±standard error. […]

[2] = system: human penile resistance arteries; assay: Effect of calcium dobesilate on relaxation induced by Ca2+-activated K+-channel activation (NS1619) in human penile arteries; conditions: calcium dobesilate 10 μM for 30 min; norepinephrine-contracted arteries; NS1619 1 nM to 10 μM
Protocol: as §1, with “NS1619” for “pinacidil”

Structure (SMILES) | erectile response (diabetic rats; 0.3 mg/kg or 5 mg/kg) | potentiation of relaxation induced by activation of K(ATP) channels with pinacidil [1] | potentiation of relaxant responses induced by K(Ca) channel activation [2] | erectile response (diabetic rats; 10 mg/kg)
O=c1[nH]c2cc(C(F)(F)F)ccc2n1-c1cc(C(F)(F)F)ccc1O [NS1619, 1-[2-Hydroxy-5-(trifluoromethyl)phenyl]-5-(trifluoromethyl)-1,3-dihydro-2H-benzimidazol-2-one] | do not modify the erectile response |  |  | 
O=S(=O)(O)c1cc(O)ccc1O [calcium dobesilate, calcium 2,5-dihydroxybenzenesulfonate] |  | significantly potentiates | strongly potentiates | do not modify the erectile response
